Assay results from ChEMBL document CHEMBL3120058, “Integrated strategies for identifying leads that target the NS3 helicase of the hepatitis C virus” (J Med Chem, 2014).

Experiments:
[1] = Inhibition of HCV H genotype 1a N-terminal hexa-histidine-tagged NS3 helicase expressed in Escherichia coli BL21(DE3) using DNA oligonucleotide duplex as substrate after 1 hr by unwinding assay; design: species or system Hepatitis C virus (isolate H)
[2] = Binding affinity to HCV H genotype 1a N-terminal hexa-histidine-tagged NS3 helicase expressed in Escherichia coli BL21(DE3) assessed as resonance peak2 by STD NMR spectroscopic analysis; design: species or system Hepatitis C virus (isolate H)
[3] = Binding affinity to HCV H genotype 1a N-terminal hexa-histidine-tagged NS3 helicase expressed in Escherichia coli BL21(DE3) assessed as resonance peak1 by STD NMR spectroscopic analysis; design: species or system Hepatitis C virus (isolate H)
[4] = Binding affinity to HCV H genotype 1a N-terminal hexa-histidine-tagged NS3 helicase expressed in Escherichia coli BL21(DE3) at pH 6.5 by circular dichroism assay; design: species or system Hepatitis C virus (isolate H)
[5] = Binding affinity to HCV H genotype 1a N-terminal hexa-histidine-tagged NS3 helicase expressed in Escherichia coli BL21(DE3) in ITC/NMR buffer at pH 7.5 by circular dichroism assay; design: species or system Hepatitis C virus (isolate H)
[6] = Binding affinity to HCV H genotype 1a N-terminal hexa-histidine-tagged NS3 helicase expressed in Escherichia coli BL21(DE3) by isothermal titration calorimetry; design: species or system Hepatitis C virus (isolate H)
[7] = Selectivity ratio for HCV H genotype 1a N-terminal hexa-histidine-tagged NS3 helicase over human RNA helicase A

SMILES	IC50 [1] [µM]	other results
Nc1cccc(Cn2cc(CC(=O)O)c3ccccc32)c1	> 500	–
O=C(O)Cc1cn(Cc2cccc(Cl)c2)c2ccccc12	71	–
O=C(O)Cc1c[nH]c2ccccc12 [INDOLE-3-ACETIC ACID]	500	–
O=C(O)Cc1cn(Cc2cccc(Cl)c2)c2cc(Br)ccc12	94	–
Nc1cc(N)cc(-c2ccc3c(CC(=O)O)cn(Cc4cccc(Cl)c4)c3c2)c1	35	–
COc1ccc([N+](=O)[O-])cc1Cn1cc(CC(=O)O)c2ccccc21	14	–
C#Cc1cccc(Cn2cc(CC(=O)O)c3ccccc32)c1	31	–
O=C(O)Cc1cn(Cc2cccc(Cl)c2)c2cc(-c3ccccc3)ccc12	140	–
O=C(O)Cc1cn(Cc2cccc(Cl)c2)c2cc(Cl)ccc12	94	–
O=C(O)Cc1cn(Cc2cccc([N+](=O)[O-])c2)c2ccccc12	46	–
COc1ccc([N+](=O)[O-])cc1Cn1cc(CC(=O)O)c2ccc(-c3cc(N)cc(N)c3)cc21	3	Kd [2]: 28 µM; Kd [3]: 32 µM; Kd [4]: 3.5 µM; Kd [5]: 41 µM; Kd [6]: 33 µM; Selectivity ratio [7]: 36
O=C(O)Cc1cn(Cc2ccccc2)c2ccccc12	240	–
Cc1cccc(Cn2cc(CC(=O)O)c3ccccc32)c1	85	–
O=C(O)Cc1cn(Cc2cccc(O)c2)c2ccccc12	150	–
O=C(O)Cc1cn(Cc2cccc(I)c2)c2ccccc12	52	–
O=C(O)Cc1cn(-c2ccc([N+](=O)[O-])cc2C(F)(F)F)c2ccc(Br)cc12	140	–
Nc1cc(-c2ccc3c(CC(=O)O)cn(Cc4cccc(Cl)c4)c3c2)cc([N+](=O)[O-])c1	140	–
